Reference: PMC6481325, “Novel N,N-dialkyl cyanocinnamic acids as monocarboxylate transporter 1 and 4 inhibitors” (Oncotarget, 2019)
Entries after “also recorded” stand apart in the source; their conditions may differ.

Assays:
[1] = test system: MCT4 expressing MDA-MB-231 cells; test: Seahorse XFe96 glycolysis stress test (ECAR), MDA-MB-231; assay type: cell-based; details: 30 μM
Protocol: (§1) In the GST, three parameters namely glycolysis, glycolytic capacity and glycolytic reserve were measured.
(§2) Extracellular acidification rates (ECAR) and oxygen consumption rates (OCR) were recorded in real-time for glycolysis stress test (GST) and mitochondrial stress test (MST), respectively, using Agilent Seahorse XFe96® analyzer.

WiDr cells = test: SRB cell proliferation inhibition assay, WiDr; assay type: cell-based; details: Homo sapiens, 72 hours, average ± sem
Protocol: MDA-MB-231 cells (ATCC, 2015) were grown in DMEM supplemented with 10% FBS and penicillin-streptomycin (50 U/ml, 50 μg/ml, Invitrogen). WiDr cells (ATCC, 2017) were cultured in MEM medium supplemented with 10% FBS (Atlanta Biologicals) and penicillin-streptomycin (50 U/ml, 50 μg/ml). For in vitro experiments, after seeding, cells were incubated at 37°C in 5% CO2 for 18–24 hours before the addition of test compounds.
Cells (5 × 10^4 cells/mL) were cultured in 48-well plates. Test compounds were dissolved in DMSO (final concentration of DMSO is <0.1%) and were added to culture wells at various concentrations in replicate and incubated for 72 hours. Growth medium was removed and the wells were washed with PBS and dried. SRB (0.5% in 1% acetic acid) was added to the wells and incubated for 30–45 minutes. The wells were washed 3 times with 1% acetic acid and dried. The cellular protein was dissolved in trizma base (10 mM, pH 10.2) and absorbance was recorded at 540 nm. Percent survival was calculated using the formula %Survival=Abstest compound/Abscontrol×100 .

[2] = test system: MCT1 expressing WiDr cells; test: Seahorse XFe96 glycolysis stress test (ECAR), WiDr; assay type: cell-based; details: 30 μM
Protocol: as §1, §2

[3] = test system: MDA-MB-231 tumor xenograft; test: Tumor growth inhibition, MDA-MB-231 xenograft model; assay type: in vivo; details: SCID mice
Protocol: Figure 6 In vivo xenograft studies in WiDr and MDA-MB-231 tumor models (A) WiDr tumor xenograft study of compound 3 and compound 9. Mice (n = 8) were treated with 8 mg/kg of compound 3, intraperitoneally, two times a day. (B) Tumor growth inhibition study with compound 9 in MDA-MB-231 tumor xenograft model (n = 6). Mice were treated with compound 9 (70 mg/kg, ip, bid until day-4; qd from day-5), a combination of 9 and doxorubicin (0.5 mg/kg, ip, five days a week), and doxorubicin. (C) Tumor growth inhibition based on isolated tumor mass. ^*P < 0.05, ^**P < 0.01, ^***P < 0.001, ^****P < 0.0001. Schematic representation of (D) untreated tumor cells and (E) inhibition of MCT1 and MCT4 and decreased glycolysis and mitochondrial OxPhos in compound 9 treated tumor cells. Upward hollowed arrow indicates “increase” in function/amount and downward hollowed arrow indicates “decrease” in function/amount.
Group-1 was administered with compound 9, group-2 was given a combination of compound 9 and clinical breast cancer drug doxorubicin (AKSci catalog # E518), and group-3 was treated with doxorubicin alone. Group-4 was assigned as a control group and treated with vehicle (10% DMSO in saline). The treatment was continued up to 18 days and on day 20, the mice were euthanized and tumor masses isolated and weighed. […] Due to these reasons, higher dosages of compound 9 were required to produce significant anticancer efficacy in vivo. In all these studies, <20% of body weight loss was observed.
Tumor cells suspended in 1:1 matrigel-PBS were injected on right flank of female SCID mice (n = 6 mice/group, 10^7 MDA-MB-231 cells) or right flank of female athymic nude mice (n = 8 mice/group, 5 × 10^6 WiDr cells). Tumors were measured using calipers every 2–3 days and tumor volumes were calculated using the formula V = ab^2/2 where ‘a’ is the long diameter of the tumor and ‘b’ is the short diameter of the tumor. Tumor growth inhibition was determined using the formula % inhibition = [(C – T)/C] × 100 where C is average tumor weight of the control group and T is the average tumor weight of the test group.

[4] = test system: MCT4 expressing MDA-MB-231 cells; test: Seahorse XFe96 mitochondrial stress test (OCR), MDA-MB-231; assay type: cell-based; details: 30 μM
Protocol: as §2

## COc1cc(N(c2ccccc2)c2ccccc2)ccc1/C=C(\C#N)C(=O)O [Phenyl (9)]
[1]
  glycolytic capacity (GST, ECAR): decreased
  glycolytic reserve (GST, ECAR): completely arrested
WiDr cells
  IC50: 4.2 ± 0.4 µM
[2]
  glycolytic capacity (GST, ECAR): decreased; also recorded: significant decrease
  glycolytic reserve (GST, ECAR): completely arrested; also recorded: significant decrease
[3]; 9 70 mg/kg ip bid until day-4, qd from day-5, doxorubicin 0.5 mg/kg ip five days a week, treatment up to 18 days
  tumor growth inhibition based on tumor volume: 58%
[3]; same regimens, tumors isolated on day 20
  tumor growth inhibition based on isolated tumor weights: 56%
[4]
  ATP production (MST, OCR): significantly decreased
  maximal respiration (MST, OCR): significantly decreased
  proton leak (MST, OCR): significantly increased
  spare respiratory capacity (MST, OCR): significantly decreased
